Results published in US8344113B2, “Diagnostic tumor markers, drug screening for tumorigenesis inhibition, and compositions and methods for treatment of cancer” (Minerva Biotechnologies Corporation, priority 2000, dated 2013).
No end group written: not given here.

Tests used:
[1] = tested on: MUC1 receptor fragments (self-aggregation); assay: Colloid color-change self-aggregation assay of MUC1-derived peptides; assay type: binding, human; conditions: peptide on NTA-Ni colloids
Method: Histidine-tagged peptides were synthesized with the sequences shown in table 1 (the various regions of MUC1). The lyophilized peptides were dissolved in DMSO to give a final concentration of 5 mM. A stock solution of each peptide was made by dissolving 4 μl 5 mM DMSO stock in 196 μl Phosphate-Buffered-Saline (PBS) for a resulting concentration of 100 μM. 20 μl of each 100 μM peptide solution was added to 100 μl colloids presenting NTA-Ni to capture the histidine tag of the peptides. The colloids were incubated with the histidine-tagged peptides at room temperature for 10 minutes to allow binding of the histidine-tags to the NTA-Ni on the surface of the colloids. 20 μl aliquots of each peptides species on colloids was then mixed with 20 μl of every other peptide species and with 60 μl of phosphate buffer pH 7.4. The color change of the colloid solutions was recorded after 15 minutes, see FIG. 2. Row A contains the His-PSIBR (primary sequence interchain binding region) peptide; Row B contains the His-TR peptide; Row C contains the His-RM2 peptide; Row D contains the His-PSMGFR peptide. Column 1 contains the His-PSIBR peptide; Column 2 contains the His-TR peptide; Column 3 contains the His-RM2 peptide; and Column 4 contains the His-PSMGFR peptide. […] During this period, the set of colloids incubated with the His-PSIBR peptide changed color from pink to blue. Only the well of Row A, Column 1, which is the cross section of PSIBR with itself, turned from pink to blue within the first 10 minutes.
The colloid sets were centrifuged to form a pellet and were resuspended in phosphate buffer. […] Since there was only one peptide species on the colloids, the binding interaction must be the PSIBR peptide binding to itself. The other sets of colloids bound to peptides were assayed for their interaction with one another by mixing 15 μl of one colloid type with 15 μl of a second colloid type and 70 μl phosphate buffer.
The peptide was attached to colloid particles presenting NTA thiols, as in other experiments described herein. […]

T47D cells [2] = assay: Cell proliferation assay, MUC1 tumor cells treated with drug candidates; assay type: cell-based, human; conditions: for Cell growth (percent cell growth over 48 hours): T47D cells; for Selective inhibition of proliferation of MUC1-expressing tumor cells over control cells: T47D versus K293, 48 hours
Method: (§1) T47D cells, mammary carcinoma cells known to overexpress MUC1, were grown in the wells of an ELISA plate along with K293 cells, human embryonic kidney cells which will serve as the negative control. 100 μl cells in growth media were added to the wells of an ELISA plate and the cells were allowed to adhere overnight. The number of cells in each well on the plate were then counted and recorded. 1 μl of a drug candidate in DMSO was then added to each well of both the T47D cells and the K293 cells. 1 μl DMSO alone was added to control wells. Each well was repeated in triplet. The cells were allowed to grow for 48 hours, the normal doubling time for these cell lines. The number of cells in each well was again counted and recorded. The percent cell growth over this 48-hour period was calculated, and the percent cell growth for wells containing a drug candidate versus DMSO were compared. […] Cell growth in the presence of Etomoxir was […] for T47D cells and 94% for control cells (K293); Cell growth in the presence of L-alpha-methyl-DOPA was 20% for T47D cells and 110% for control cells (K293); Cell growth in the presence of Fusaric acid was 27.7% for T47D cells, and 106.7% for control cells (K293); Cell growth in the absence of any drug (but with an equivalent amount of DMSO added) was 91.3% for T47D cells, and 106.2% for control cells (K293).

[3] = target: T1, MGFR portion of the MUC1 receptor and its activating ligand(s) (Homo sapiens, UniProt P15941, R1131P); assay: Colloid-based color-change drug screening assay (His-PSMGFR colloids plus T47D cell lysate); assay type: binding; conditions: final drug concentration approximately 100 μM
T1 construct: made in house; host or cells: chemical synthesis (synthetic peptide)
T1 sequence (P15941 with tags, fused parts or gaps R1131P): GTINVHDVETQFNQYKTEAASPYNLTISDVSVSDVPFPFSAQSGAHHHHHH
Method: In a typical example, 1.5 ml of commercially available gold colloid (Auro Dye by Amersham) were pelleted by centrifugation in a microfuge on high for 10 minutes. The pellet was resuspended in 100 μL of the storage buffer (sodium citrate and tween-20). 100 μL of a dimethyl formamide (DMF) solution containing thiols. Following a 3-hour incubation in the thiol solution, the colloids were pelleted and the supernatant discarded. They were then heat cycled in 100 μL of 400 μM tri-ethylene glycol-terminated thiol in DMF for 2 minutes at 55° C., 2 minutes at 37° C., 1 minute at 55° C., 2 minutes at 37° C., then room temperature for 10 minutes. Heat cycling results in the elimination of any species that are not in the lowest energy confirmation, resulting in a stable, close-packed, self-assembled monolayer. Heat cycling can be carried out with any of a wide variety of self-assembled monolayer-forming species. The colloids were then pelleted and 100 μL 100 mM NaCl phosphate buffer were added. The colloids were then diluted 1:1 with 180 μM NiSO4 in the colloid storage buffer.
Thiols used in coating colloids typically were derived from solutions containing about 40 μM nitrilo tri-acetic acid (NTA)-thiol, and other thiols such as methyl-terminated thiol (HS—(CH2)15 CH3), 40% tri-ethylene glycol-terminated thiol, HS(CH2)11[…], (formula) and 50% poly(ethynylphenyl) thiol (C16H10S).
Colloid aggregation can be sensitively detected by monitoring color change of colloid particles which are initially disperse in suspension. Aggregation results in a color change to blue. No auxiliary signaling entity is necessary. In drug screening, aggregation (or lack thereof) is observed in the presence of candidate drugs.
The following is an example of a working drug screening assay to identify anti-cancer agents. In this example, a histidine-tagged peptide derived from the portion of the MUC1 receptor that remains attached to the cell surface after receptor cleavage (His-PSMGFR) was attached to NTA-nickel-SAM-coated gold colloids. The peptide-presenting colloids were incubated with lysates/supernatants from MUC1 presenting cells that were shown herein to contain ligands that cause dimerization or multimerization of that portion of the MUC1 receptor. This ligand-induced multimerization of the MGFR portion of the receptor causes the attached colloids to be drawn close together, which causes a change in the color of the colloid solution from pink to blue. Drugs that interfere with the binding of activating ligands to the MGFR portion of the receptor cause the solution to remain pink.
Negative control wells contained colloids bound with a random sequence histidine-tagged peptide in place of the MUC1 peptide. […] The well containing colloids that presented the PSMGFR peptide plus T47D cell lysates (Well A) changed color from pink to blue, indicating the presence of a multimerizing ligand. Wells that contained a random sequence peptide (RGD) in place of the PSMGFR peptide (Well B) remained pink. Wells that contained phosphate buffer in place of cell lysate also remained pink (Wells C and D).
T47D cells were trypsinized from a T25 flask, pelleted, resuspended in phosphate buffer, and lysed by sonication to release the ligand into solution. NTA-SAM-coated colloids were bound with the His-PSMGFR peptide:
200 μl NTA-SAM-coated colloids were incubated with 20 μl 100 μM peptide in phosphate buffer for 15 minutes, pelleted to remove unbound peptide, and resuspended in phosphate buffer. […]

K293 cells = assay: Cell proliferation assay, negative control cells treated with drug candidates; assay type: cell-based, human
Method: as §1

T47D cells [4] = assay: Modulation of the inhibitory effect of Etomoxir on cell proliferation by added PSMGFR; assay type: cell-based, human
Method: The following experiment was performed in triplicate. T47D cells were grown to approximately 30% confluency. […] Then, a synthetic peptide (PSMGFR) was added to the cell growth media under normal cell growth conditions.

PSMGFR peptide = target: T2, PSMGFR peptide (Homo sapiens, UniProt P15941, R1131P); assay: Co-elution of drugs with bead-immobilized His-PSMGFR peptide (HPLC / TLC); assay type: binding; conditions: eluates from NTA-nickel beads analyzed by TLC
T2 construct: made in house; host or cells: chemical synthesis (synthetic peptide)
T2 sequence (P15941 with tags, fused parts or gaps R1131P): T1 sequence (P15941 with tags, fused parts or gaps R1131P)
Method: The His-PSMGFR peptide was attached to NTA-nickel agarose beads then separately incubated with each of the drug candidates. 100 μl beads were bound to saturation with 1 mg peptide, rinsed to remove unbound peptide, and incubated with 25 μl 2.7 mg/ml drug candidate in DMSO for one hour in 5 ml phosphate buffer. Unbound drugs were washed away with phosphate buffer, and the peptide was eluted from the beads with PBS, 250 mM imidazole. If the drug candidate bound to the peptide, it would co-elute with the peptide in the imidazole solution. Peptide-drug complexes were then separated by HPLC. HPLC elution peaks from the complex were compared to the elution peaks from the drug, injected alone, and the PSMGFR peptide alone.
In a similar experiment, eluates from the beads were analyzed by TLC (thin layer chromatography). Two drugs, calcimycin and NS1619 which could be tracked by TLC, because they fluoresced under UV light, were tested. NTA-nickel bead-immobilized peptides were incubated with the drugs as described above, rinsed and eluted from the beads, then rotoevaporated to remove the aqueous buffer. The solid was then resuspended in ethylacetate, 5% methanol and spotted on TLC plates then run in the same organic solvent. […] Calcimycin, gave a clear blue spot under 250 nm UV light and ran at a less polar position (as expected) than the peptide itself. […]

Self-aggregation of colloid-immobilized peptide (color change pink to blue) [1]	Compound	Interruption of the interaction of MGFR with its ligand(s) (colloid solution stays pink) [3]	Cell growth (percent cell growth over 48 hours) (K293 cells) [%]	also measured
	C[C@](N)(Cc1ccc(O)c(O)c1)C(=O)O [L-alpha-methyl-DOPA]	interrupt the interaction of MGFR with its ligand(s)	110	Cell growth (percent cell growth over 48 hours) (T47D cells [2]): 20%; Selective inhibition of proliferation of MUC1-expressing tumor cells over control cells (T47D cells [2]): selectively inhibited proliferation of the MUC1-expressing tumor cells over K293 negative control cells
	CCCCc1ccc(C(=O)O)nc1 [Fusaric acid]		106.7	Cell growth (percent cell growth over 48 hours) (T47D cells [2]): 27.7%
	CCCC[C@@]1(C2CCCC2)Cc2cc(OCC(=O)O)c(Cl)c(Cl)c2C1=O [butylindazone]	interrupt the interaction of MGFR with its ligand(s)		
	PSMGFR: Primary Sequence of the MUC1 Growth Factor Receptor, SEQ ID NO: 7 (GTINVHDVETQFNQYKTEAASPYNLTISDVSVSDVPFPFSAQSGA; Primary Sequence of the MUC1 Growth Factor Receptor (PSMGFR))			Cell proliferation after adding peptide to Etomoxir-treated cells (T47D cells [4]; Etomoxir approx. 100 micromolar present): increased cell proliferation
completely free of self-aggregation	His-PSMGFR: Histidine-tagged PSMGFR peptide, SEQ ID NO: 2 (GTINVHDVETQFNQYKTEAASPYNLTISDVSVSDVPFPFSAQSGAHHHHHH; His-PSMGFR peptides)			
self-aggregated	ESMGFR: Histidine-tagged Extended Sequence of MUC1 Growth Factor Receptor, SEQ ID NO: 3 (VQLTLAFREGTINVHDVETQFNQYKTEAASPYNLTISDVSVSDVPFPFHHHHHH; “Extended Sequence of the MUC1 Growth Factor Receptor” (ESMGFR))			
	CCOC(=O)[C@@]1(CCCCCCOc2ccc(Cl)cc2)CO1 [Etomoxir]	interrupt the interaction of MGFR with its ligand(s)	94	Selective inhibition of proliferation of MUC1-expressing tumor cells over control cells (T47D cells [2]): selectively inhibited proliferation of the MUC1-expressing tumor cells over K293 negative control cells; Cell proliferation in the presence of drug (T47D cells [4]; approx. 100 micromolar): arrested
	CNc1ccc2oc(C[C@H]3O[C@@]4(CC[C@H]3C)O[C@H]([C@H](C)C(=O)c3ccc[nH]3)[C@H](C)C[C@H]4C)nc2c1C(=O)O [calcimycin]	interrupt the interaction of MGFR with its ligand(s)		Direct binding to PSMGFR peptide (co-elution, TLC) (PSMGFR peptide): co-eluted with the PSMGFR peptide
	O=c1[nH]c2cc(C(F)(F)F)ccc2n1-c1cc(C(F)(F)F)ccc1O [NS1619]	interrupt the interaction of MGFR with its ligand(s)		Direct binding to PSMGFR peptide (co-elution, TLC) (PSMGFR peptide): co-eluted with the PSMGFR peptide

Compound	Self-aggregation of colloid-immobilized peptide (color change pink to blue) [1]	Interruption of the interaction of MGFR with its ligand(s) (colloid solution stays pink) [3]	Cell growth (percent cell growth over 48 hours) (K293 cells) [%]	also measured
PSIBR: Primary Sequence of the Interchain Binding Region; tested histidine-tagged, SEQ ID NO: 4 (GFLGLSNIKFRPGSVVVQLTLAFRE; not fully specified (N-terminus); also: tested histidine-tagged, tag position not given here)	self-aggregates in a high affinity interaction			
